The values below come from patent US6743895B1, “Bone stimulating factor” (Osteopharm Inc., priority 1995, dated 2004).

Residues, ends and D or L forms follow the SMILES beside them. No end group written: not given here.

The test system of one data set is rats. Description: Bone mineral apposition rate in intact rats after subcutaneous injection of polypeptide, tetracycline labelling. The class given is in vivo, Sprague-Dawley rats. As to the method:
Experiments were carried out on three groups of six rats weighing between 295 and 320 g. A 1 mg per ml solution of the modified peptide (SEQ ID NO:3) was prepared in 0.1% acetic acid. A 1 mg per ml solution of the normal peptide (SEQ ID NO:1) was prepared in 0.1% acetic acid. Each rat of a first of the groups had subcutaneously injected into its right thigh 0.1 ml of the modified peptide solution. Similarly, each rat of the second group was injected with 0.1 ml of the normal peptide solution. Each rat of the third group, the control group, was injected with 0.1 ml of 0.1% acetic acid solution. Immediately following these injections, each rat was injected intramuscularly with 24 mg per Kg body weight of tetracycline hydrochloride dissolved in 0.5 ml of water. A second dose of tetracycline hydrochloride was administered 48 hours later. The animals were sacrificed 24 hours after the second dose by CO2 narcosis. The lower metaphysis of the right femur was dissected out and fixed in a 10% aqueous solution of formaldehyde buffered at pH 7.2 by acetate buffer. Bone sections were prepared for measurement as described above.
Sprague-Dawley rats were used as test animals to determine bone mineral apposition rate, as described above. Male rats having weights between 280 and 380 g were subject to subcutaneous injection after one week of acclimatization. Each animal was injected with 200 μl of a 0.1% acetic acid test solution, solutions having been prepared at concentrations to obtain a dosage of about 25 nmol of polypeptide per animal. Each test dose was immediately followed by intramuscular injection of 24 mg per Kg of body weight of tetracycline hydrochloride. A second injection of tetracycline was made 48 hours later.
Bone mineral apposition rates were determined by measurements of the lower metaphysis of the right femur, as described previously. Results obtained in the two sets of experiments are summarized in Tables Seven and Eight and graphically depicted in FIGS. 8 and 9.
Bone mineral apposition rates were again determined by measurement of the lower metaphysis of the right femur. Results obtained are summarized in Table Nineteen and graphically depicted in FIG. 12. […]
In a final set of experiments, a polypeptide having the ninth amino acid, cysteine, replaced by the amino acid tyrosine, SEQ ID NO:43, was synthesized and tested for bone stimulatory activity. Four rats (about 300 grams) were each administered with 100 nmoles of material (in 400 μl 20 mM acetic acid solution) by subcutaneous injection along with tetracycline (5 mg per animal in 400 μl water), as described above. A second dosage of tetracycline was administered 48 hours later and the animals sacrificed 24 hours after that. The lower metaphysis of the right femur was examined to determine the bone mineral apposition rate. For comparison, experiments were performed using a control in which no compound was present in the acetic acid solution.

Data set [1] has as its system ovariectomized rats. The experiment in a line: Bone mineral (calcium) content by DEXA in ovariectomized rats. It counts as in vivo, rat. Particulars: 25 nmoles s.c. each day. As to the method: Ovariectomies were performed on rats as described above. A 0.1% acetic acid solution containing 25 nmoles of the polypeptide was administered subcutaneously to each rat each day for the duration of the experiment. […] Another group of rats was treated for eight weeks beginning eight weeks after ovariectomization. Rats were sacrificed at the end of the treatment period and dissected and post mortem assessment of bone mineral content was carried out. The lumbar spines L1-L4 were cleaned with a power nylon brush to remove the attached muscle. They were placed ventral side down under 3 cm of distilled water in a polypropylene container and scanned by a dual energy x-ray absorptometer (DEXA). Hologic 100, to determine the calcium content in grams. The right femur of each rat was also dissected out intact and cleared of the attached muscles with a power nylon brush. It was scanned dorsal side down under 3 cm of distilled water by DEXA. Four regions of the femur were scanned, as indicated in FIGS. 10 and 11: A, proximal end; B, diaphysis; C, distal end; and D, neck. The bone mineral (i.e., calcium) content in grams was estimated in the four zones of the femur based on absorption and using an internal standard of the machine.

Data set [2] can be described thus: Stability of dissolved polypeptides (capillary electrophoresis, RP-HPLC). The class given is physicochemical. To be noted: 37° C. As to the method: Each of the polypeptides having the sequences identified as SEQ ID NO: 7 and 24 was dissolved in 5 mM acetic acid to a final concentration of 1 mg/ml and incubated at 37° C. The peptide compositions were analyzed weekly by capillary electrophoresis on a P/ACE 6000 system (Beckman) using 50 mM sodium phosphate pH 2.5 as the running buffer on a 57 cm long×75 μm internal diameter capillary. The incubated peptide (20 μl) was diluted with 80 μl of running buffer, placed in a 500 μl vial prior to injection onto the P/ACE using pressure for 20 seconds. Following electrophoresis of the incubated peptide at 30 kV for 15 min a second run was carried out using freshly dissolved peptide as a control.
Each of the polypeptides was dissolved in 20 mM sodium phosphate pH 3.0, 20 mM ammonium acetate pH 4.0, 20 mM ammonium acetate pH 5.0, 20 mM MES pH 6.0, 20 mM sodium phosphate pH 7.0, 20 mM sodium phosphate pH 7.5, 20 mM sodium phosphate pH 8.0, 20 mM ammonium acetate pH 8.5 or 20 mM ammonium acetate pH 9.5 to a final concentration of 1 mg/ml. The peptide was incubated at 37° C. and the peptide assayed weekly by separation on P/ACE as described above. Some samples were separated by RP-HPLC and the isolated peaks subjected to mass spectroscopic analysis.
The protected polypeptide identified as SEQ ID NO:24 was dissolved in 20 mM or 250 mM ammonium acetate pH 4.5 to a final concentration of 1 mg/ml. In some experiments the buffer was supplemented with 20 mM EDTA. The peptide solution was then incubated at −70° C., −20° C., 4° C. or room temperature (22° C.). Samples were assayed weekly by electrophoresis on the P/ACE as described above and/or by RP-HPLC.
The stability of each of the polypeptides having the amino acid sequences identified as SEQ ID NOs: 25, 26 and 27 was tested as described above.

The subject of data set [3] is parathyroidectomized rats. Description: Histological evaluation of selected tissues (toxicity experiments). To be noted: miniosmotic pump, about 25 μg per day. The class given is in vivo, rat. As to the method: A miniosmotic pump (Alzet) was loaded with about 1.5 ml of the chemically synthesized peptide having an N-terminal acetyl group (SEQ ID NO:2) in 0.1% acetic acid so as to give a calculated daily delivery of about 25 μg per day. A pump was implanted under the subcutaneous fascia of the dorsal aspect of the left side of the thorax of five rats which had been parathyroldectomized seven days earlier. Five similarly parathyroldectomized rats received similar implants containing only 0.1% acetic acid. Five intact rats were also used as controls.
Histological evaluation of selected tissues of the five rats of each of the groups indicated in Table One were carried out microscopically.

The subject of data set [4] is ovariectomized rats. The experiment in a line: Autopsy after eight week administration to ovariectomized rats. It counts as in vivo, rat. Particulars: 100 μg s.c. every 24 hours for eight weeks. As to the method: Eight weeks after ovariectomization, five ovariectomized rats were injected subcutaneously with 100 μl of a 0.1% acetic acid solution containing 100 μg of the chemically synthesized peptide in which the N-terminal amino group was modified with an acetyl group (SEQ ID NO:2). This was done every 24 hours for eight weeks. On day 54, a tetracycline hydrochloride solution was injected intramuscularly into the right gluteus maximus of each rat so as to give 24 mg per Kg of body weight, as described previously. On day 56, a second dose of tetracycline hydrochloride was injected and the rats were sacrificed on the 57th day.
Post-mortem blood was taken by cardiac puncture and serum frozen until analyzed. An autopsy was performed on each rat.

In data set [5] the test system is ovariectomized rats. Description: Full autopsy after four week administration to ovariectomized rats. Particulars: 100 μg s.c. every 24 hours for 28 days. It counts as in vivo, Sprague-Dawley rats. As to the method: The six ovariectomized rats were injected subcutaneously with 100 μl of a 0.1% acetic acid solution containing 100 μg of the chemically synthesized peptide (SEQ ID NO:1) every 24 hours for 28 days. On day 25, a tetracycline hydrochloride solution was injected intramuscularly into each rat so as to give 24 mg per Kg of body weight, as described previously. On day 27, a second dose of tetracycline hydrochloride was injected and the rats were sacrificed on the 28th day.
Post-mortem blood was taken by cardiac puncture and serum frozen until analyzed. A full autopsy was performed on each rat.

GIGKRTNEHTADCKI [SEQ ID NO:7]: the “Mean Bone Apposition Rate” value in the data set on rats (about 125 nmoles of polypeptide per Kg of body weight (Table Twenty)) is listed as 2.18 μm/day. The “Bone mineral apposition rate, Mean” value with rats (male Sprague-Dawley rats 280-380 g, about 25 nmol per animal s.c., first set (Table Seven)) came to 1.41 μm per day. Besides, in the data set on ovariectomized rats [1] (Administered over 56 Days), the “Bone Mineral Content Measured in Distal End of Femur, Mean” value is 0.1347 g; the “Bone Mineral Content Measured in Femoral Diaphysis, Mean” value was 0.2091 g; the “Bone Mineral Content Measured in Femoral Neck, Mean” value came out at 0.0274 g; the “Bone Mineral Content Measured in Proximal End of Femur, Mean” value stood at 0.1328 g. Moreover, the “Bone Mineral Content Measured in Spine L1-L4, Mean” value with ovariectomized rats [1] (Administered over 56 Days) is 0.4606 g. Also, in the data set on ovariectomized rats [1] (Administered over 100 Days), the “Bone Mineral Content Measured in Distant End of Femur, Mean” value turned out to be 0.1424 g; the “Bone Mineral Content Measured in Femoral Diaphysis, Mean” value worked out at 0.2347 g; the “Bone Mineral Content Measured in Femoral Neck, Mean” value worked out at 0.0351 g; the “Bone Mineral Content Measured in Proximal End of Femur, Mean” value came out at 0.1411 g. In addition, the “Bone Mineral Content Measured in Spine L1-L4, Mean” value with ovariectomized rats [1] (Administered over 100 Days) was 0.4758 g. Also, the “Stability when dissolved in dilute acids” value in data set [2] (5 mM acetic acid, 1 mg/ml, analyzed weekly by capillary electrophoresis) is “degraded overtime”. Further, the “pH at which the peptide was most stable” value in data set [2] (20 mM buffers pH 3.0 to 9.5, 1 mg/ml) amounted to 4.5.
With `CC[C@H](C)[C@H](NC(=O)CNC(C)=O)C(=O)NCC(=O)N[C@@H](CCCCN)C(=O)N[C@@H](CCCNC(=N)N)C(=O)N[C@H](C(=O)N[C@@H](CC(N)=O)C(=O)N[C@@H](CCC(=O)O)C(=O)N[C@@H](Cc1c[nH]cn1)C(=O)N[C@H](C(=O)N[C@@H](C)C(=O)N[C@@H](CC(=O)O)C(=O)N[C@@H](CS)C(=O)N[C@@H](CCCCN)C(=O)N[C@H](C(=O)N[C@@H](CCCCN)C(=O)N1CCC[C@H]1C(=O)N[C@@H](CC(N)=O)C(=O)N[C@H](C(=O)N[C@@H](CC(C)C)C(=O)N[C@@H](Cc1c[nH]cn1)C(=O)N[C@@H](CCCCN)C(=O)N[C@@H](CCCCN)C(=O)N[C@@H](C)C(=O)N[C@@H](C)C(=O)N[C@@H](CCC(=O)O)C(=O)N[C@H](C(=O)N[C@@H](CC(C)C)C(=O)N[C@@H](CCSC)C(=O)N[C@H](C(=O)N[C@@H](CC(C)C)C(=O)N[C@@H](CC(=O)O)C(=O)N[C@@H](CCC(N)=O)C(=O)N[C@@H](CC(N)=O)C(=O)N[C@@H](CCC(N)=O)C(=O)N1CCC[C@H]1C(=O)O)C(C)C)[C@@H](C)O)[C@@H](C)O)[C@@H](C)CC)[C@@H](C)O)[C@@H](C)O` [SEQ ID NO:2] (Ac-GIGKRTNEHTADCKIKPNTLHKKAAETLMVLDQNQP-OH), the “Histological evaluation of selected tissues” value in data set [3] is given as “No evidence of toxic lesions”. Also, in the data set with ovariectomized rats [4], the Autopsy findings entry is on record as “No obvious pathology was observed”.
Consider `CC[C@H](C)[C@H](NC(=O)CN)C(=O)NCC(=O)N[C@@H](CCCCN)C(=O)N[C@@H](CCCNC(=N)N)C(=O)N[C@H](C(=O)N[C@@H](CC(N)=O)C(=O)N[C@@H](CCC(=O)O)C(=O)N[C@@H](Cc1c[nH]cn1)C(=O)N[C@H](C(=O)N[C@@H](C)C(=O)N[C@@H](CC(=O)O)C(=O)N[C@@H](CS)C(=O)N[C@@H](CCCCN)C(=O)N[C@H](C(=O)N[C@@H](CCCCN)C(=O)N1CCC[C@H]1C(=O)N[C@@H](CC(N)=O)C(=O)N[C@H](C(=O)N[C@@H](CC(C)C)C(=O)N[C@@H](Cc1c[nH]cn1)C(=O)N[C@@H](CCCCN)C(=O)N[C@@H](CCCCN)C(=O)N[C@@H](C)C(=O)N[C@@H](C)C(=O)N[C@@H](CCC(=O)O)C(=O)N[C@H](C(=O)N[C@@H](CC(C)C)C(=O)N[C@@H](CCSC)C(=O)N[C@H](C(=O)N[C@@H](CC(C)C)C(=O)N[C@@H](CC(=O)O)C(=O)N[C@@H](CCC(N)=O)C(=O)N[C@@H](CC(N)=O)C(=O)N[C@@H](CCC(N)=O)C(=O)N1CCC[C@H]1C(=O)O)C(C)C)[C@@H](C)O)[C@@H](C)O)[C@@H](C)CC)[C@@H](C)O)[C@@H](C)O` [SEQ ID NO:1] (H-GIGKRTNEHTADCKIKPNTLHKKAAETLMVLDQNQP-OH), for which the Full autopsy findings entry in the data set with ovariectomized rats [5] was “No ill effects were observed”.
